Measured values reported in article PMC5218480 (PLoS ONE, 2017).

System: MV-4-11 cells
Assay: Gene expression microarray analysis (Affymetrix PrimeView) and GSEA
Assay type: cell-based, human
Parameters: RFU PODN (11730768_x_at) / Fold change /veh PODN (11730768_x_at) / RFU LINC00158 (11744669_a_at) / Fold change /veh LINC00158 (11744669_a_at) / RFU DUSP10 (11751237_a_at) / Fold change /veh DUSP10 (11751237_a_at) / RFU ID3 (11757404_x_at) / Fold change /veh ID3 (11757404_x_at) / RFU PLEKHG5 (11737974_s_at) / Fold change /veh PLEKHG5 (11737974_s_at) / RFU LRRC4B (11730491_at) / Fold change /veh LRRC4B (11730491_at) / RFU GIMAP4 (11747438_a_at) / Fold change /veh GIMAP4 (11747438_a_at) / RFU KRT8 (11758183_x_at) / Fold change /veh KRT8 (11758183_x_at) / RFU CNN1 (11734310_a_at) / Fold change /veh CNN1 (11734310_a_at) / RFU VPS37D (11726825_at) / Fold change /veh VPS37D (11726825_at) / RFU C10orf10 (11716522_x_at) / Fold change /veh C10orf10 (11716522_x_at) / RFU KIR2DL2 /// KIR2DL4 /// KIR2DL5A /// KIR2DL5B /// KIR2DS1 /// KIR2DS2 /// KIR2DS3 /// KIR2DS4 /// KIR3DL3 /// KIR3DL3 /// KIR3DS1 (11738374_at) / Fold change /veh KIR2DL2 /// KIR2DL4 /// KIR2DL5A /// KIR2DL5B /// KIR2DS1 /// KIR2DS2 /// KIR2DS3 /// KIR2DS4 /// KIR3DL3 /// KIR3DL3 /// KIR3DS1 (11738374_at) / RFU C1QL1 (11718748_at) / Fold change /veh C1QL1 (11718748_at) / RFU TMPRSS4 (11747572_a_at) / Fold change /veh TMPRSS4 (11747572_a_at) / RFU HAMP (11756126_x_at) / Fold change /veh HAMP (11756126_x_at) / RFU RNFT2 (11725882_a_at) / Fold change /veh RNFT2 (11725882_a_at) / RFU NR4A2 (11747474_a_at) / Fold change /veh NR4A2 (11747474_a_at) / RFU ABCC12 (11746883_a_at) / Fold change /veh ABCC12 (11746883_a_at) / RFU TMEM136 (11760407_x_at) / Fold change /veh TMEM136 (11760407_x_at) / RFU CLDN22 /// WWC2 (11732394_at) / Fold change /veh CLDN22 /// WWC2 (11732394_at) / RFU HLA-DPB1 (11760878_x_at) / Fold change /veh HLA-DPB1 (11760878_x_at) / RFU SPINT1 (11716480_a_at) / Fold change /veh SPINT1 (11716480_a_at) / RFU GAP43 (11754022_s_at) / Fold change /veh GAP43 (11754022_s_at) / RFU A4GNT (11735810_at) / Fold change /veh A4GNT (11735810_at) / RFU PRB3 (11715151_x_at) / Fold change /veh PRB3 (11715151_x_at) / RFU TUBB4B (11761932_at) / Fold change /veh TUBB4B (11761932_at) / RFU CAPN14 (11732068_a_at) / Fold change /veh CAPN14 (11732068_a_at) / RFU TMCC2 (11721928_a_at) / Fold change /veh TMCC2 (11721928_a_at) / RFU IRGQ (11745062_a_at) / Fold change /veh IRGQ (11745062_a_at) / RFU FAM174B (11720279_a_at) / Fold change /veh FAM174B (11720279_a_at) / RFU TMPRSS4 (11748680_a_at) / Fold change /veh TMPRSS4 (11748680_a_at) / RFU FAM212B (11763350_a_at) / Fold change /veh FAM212B (11763350_a_at) / RFU PLEKHG5 (11743358_a_at) / Fold change /veh PLEKHG5 (11743358_a_at) / RFU ZSCAN30 (11745921_a_at) / Fold change /veh ZSCAN30 (11745921_a_at) / RFU CMKLR1 (11741424_a_at) / Fold change /veh CMKLR1 (11741424_a_at) / RFU LOC101060620 /// MAPK8IP1 (11723275_at) / Fold change /veh LOC101060620 /// MAPK8IP1 (11723275_at) / RFU SPTSSB (11747773_x_at) / Fold change /veh SPTSSB (11747773_x_at) / RFU PRSS12 (11739890_at) / Fold change /veh PRSS12 (11739890_at) / RFU BIN1 (11741810_x_at) / Fold change /veh BIN1 (11741810_x_at) / RFU WNT11 (11732464_a_at) / Fold change /veh WNT11 (11732464_a_at) / RFU C10orf10 (11716521_a_at) / Fold change /veh C10orf10 (11716521_a_at) / RFU C5orf56 (11738089_at) / Fold change /veh C5orf56 (11738089_at) / RFU CYB561 (11721691_x_at) / Fold change /veh CYB561 (11721691_x_at) / RFU ANKRD19P (11752326_a_at) / Fold change /veh ANKRD19P (11752326_a_at) / RFU OR2T12 /// OR2T33 /// OR2T8 (11738714_s_at) / Fold change /veh OR2T12 /// OR2T33 /// OR2T8 (11738714_s_at) / RFU VCAN (11748164_a_at) / Fold change /veh VCAN (11748164_a_at) / RFU JSRP1 (11732532_at) / Fold change /veh JSRP1 (11732532_at) / RFU KRTAP10-11 (11738290_x_at) / Fold change /veh KRTAP10-11 (11738290_x_at) / RFU MYO3A (11730013_a_at) / Fold change /veh MYO3A (11730013_a_at) / RFU EBF3 (11725865_a_at) / Fold change /veh EBF3 (11725865_a_at) / RFU CAMK2N1 (11719241_x_at) / Fold change /veh CAMK2N1 (11719241_x_at) / RFU C5orf56 (11738088_a_at) / Fold change /veh C5orf56 (11738088_a_at) / RFU OLFML3 (11715873_a_at) / Fold change /veh OLFML3 (11715873_a_at) / RFU LOC100653217 /// NTM (11731650_a_at) / Fold change /veh LOC100653217 /// NTM (11731650_a_at) / RFU MAPK11 (11762145_a_at) / Fold change /veh MAPK11 (11762145_a_at) / RFU FIZ1 (11724087_x_at) / Fold change /veh FIZ1 (11724087_x_at) / RFU OASL (11726364_x_at) / Fold change /veh OASL (11726364_x_at) / RFU SOX15 (11748057_x_at) / Fold change /veh SOX15 (11748057_x_at) / RFU CD79A (11719716_a_at) / Fold change /veh CD79A (11719716_a_at) / RFU HIST1H1D (11736915_at) / Fold change /veh HIST1H1D (11736915_at) / RFU CASKIN2 (11723855_a_at) / Fold change /veh CASKIN2 (11723855_a_at) / RFU LOC730098 (11760151_x_at) / Fold change /veh LOC730098 (11760151_x_at) / RFU OR4N2 (11742367_at) / Fold change /veh OR4N2 (11742367_at) / RFU PRRT2 (11749266_a_at) / Fold change /veh PRRT2 (11749266_a_at) / RFU SNX32 (11753110_a_at) / Fold change /veh SNX32 (11753110_a_at) / RFU CDHR5 (11726645_a_at) / Fold change /veh CDHR5 (11726645_a_at) / RFU RCAN1 (11760418_a_at) / Fold change /veh RCAN1 (11760418_a_at) / RFU FAM167A (11723789_a_at) / Fold change /veh FAM167A (11723789_a_at) / RFU FAM26E (11764081_at) / Fold change /veh FAM26E (11764081_at) / RFU ISYNA1 (11749810_s_at) / Fold change /veh ISYNA1 (11749810_s_at) / RFU ACY1 (11761880_at) / Fold change /veh ACY1 (11761880_at) / RFU 11764098_at / Fold change /veh 11764098_at / RFU SAMD14 (11745864_x_at) / Fold change /veh SAMD14 (11745864_x_at) / RFU NPB (11741838_a_at) / Fold change /veh NPB (11741838_a_at) / RFU TMPRSS6 (11731388_a_at) / Fold change /veh TMPRSS6 (11731388_a_at) / RFU KRTAP10-2 (11738614_at) / Fold change /veh KRTAP10-2 (11738614_at) / RFU ARHGAP8 /// PRR5-ARHGAP8 (11727945_x_at) / Fold change /veh ARHGAP8 /// PRR5-ARHGAP8 (11727945_x_at) / RFU KRTAP5-7 /// NADSYN1 (11734609_at) / Fold change /veh KRTAP5-7 /// NADSYN1 (11734609_at) / RFU RASL12 (11751679_a_at) / Fold change /veh RASL12 (11751679_a_at) / RFU CDKN2B (11736163_a_at) / Fold change /veh CDKN2B (11736163_a_at) / RFU PRF1 (11729649_at) / Fold change /veh PRF1 (11729649_at) / RFU, ZNF638 /// ZNF638-IT1 / Fold change vs veh, ZNF638 /// ZNF638-IT1 / RFU, PANK3 / Fold change vs veh, PANK3 / RFU, SH3YL1 / Fold change vs veh, SH3YL1 / RFU, ZEB2 / Fold change vs veh, ZEB2 / RFU, NRIP1 / Fold change vs veh, NRIP1 / RFU, PTTG1IP / Fold change vs veh, PTTG1IP / RFU, CAPN2 / Fold change vs veh, CAPN2 / RFU, MED14 / Fold change vs veh, MED14 / RFU, SNORA58 / Fold change vs veh, SNORA58 / RFU, C1orf63 / Fold change vs veh, C1orf63 / RFU, LRRFIP1 / Fold change vs veh, LRRFIP1 / RFU, NDUFAF7 / Fold change vs veh, NDUFAF7 / RFU, SLC12A2 / Fold change vs veh, SLC12A2 / RFU, IBTK / Fold change vs veh, IBTK / RFU, ESF1 / Fold change vs veh, ESF1 / Fold change vs veh, TMEM50B / RFU, TAOK1 / Fold change vs veh, TAOK1 / RFU, ACBD3 / Fold change vs veh, ACBD3 / RFU, TMA16 / Fold change vs veh, TMA16 / RFU, RWDD3 / Fold change vs veh, RWDD3 / RFU, BCAT1 / Fold change vs veh, BCAT1 / RFU, EDEM3 / Fold change vs veh, EDEM3 / RFU, TMEM33 / Fold change vs veh, TMEM33 / RFU, WDR75 / Fold change vs veh, WDR75 / RFU, AHCTF1 / Fold change vs veh, AHCTF1 / RFU, TFRC / Fold change vs veh, TFRC / RFU, ZDHHC17 / Fold change vs veh, ZDHHC17 / RFU, NOM1 / Fold change vs veh, NOM1 / RFU, ARL8B / Fold change vs veh, ARL8B / RFU, ZBTB11 / Fold change vs veh, ZBTB11 / RFU, TAMM41 / Fold change vs veh, TAMM41 / RFU, KIAA1704 /// LOC100996395 / Fold change vs veh, KIAA1704 /// LOC100996395 / RFU, ING1 / Fold change vs veh, ING1 / RFU, TRMT61B / Fold change vs veh, TRMT61B / RFU, FUBP3 / Fold change vs veh, FUBP3 / RFU, TP53 / Fold change vs veh, TP53 / RFU, TNKS2 / Fold change vs veh, TNKS2 / RFU, ZFP14 / Fold change vs veh, ZFP14 / RFU, ACTR2 / Fold change vs veh, ACTR2 / RFU, PPP3R1 / Fold change vs veh, PPP3R1 / RFU, PIK3R1 / Fold change vs veh, PIK3R1 / RFU, HNRNPA1 / Fold change vs veh, HNRNPA1 / RFU, RNF170 / Fold change vs veh, RNF170 / RFU, ZNF28 / Fold change vs veh, ZNF28 / RFU, RNGTT / Fold change vs veh, RNGTT / RFU, OGT / Fold change vs veh, OGT / RFU, BRD1 / Fold change vs veh, BRD1 / RFU, MARS / Fold change vs veh, MARS / RFU, ZNF655 / Fold change vs veh, ZNF655 / RFU, FAHD1 / Fold change vs veh, FAHD1 / RFU, BDP1 / Fold change vs veh, BDP1 / RFU, LRRCC1 / Fold change vs veh, LRRCC1 / RFU, ARID1A / Fold change vs veh, ARID1A / RFU, ZNF146 / Fold change vs veh, ZNF146 / RFU, ZNF330 / Fold change vs veh, ZNF330 / RFU, GPN3 / Fold change vs veh, GPN3 / RFU, C9orf123 / Fold change vs veh, C9orf123 / RFU, N4BP2L2 / Fold change vs veh, N4BP2L2 / RFU, ARFIP1 / Fold change vs veh, ARFIP1 / RFU, FAM179B / Fold change vs veh, FAM179B / RFU, BCL10 / Fold change vs veh, BCL10 / RFU, UHRF1BP1L / Fold change vs veh, UHRF1BP1L / RFU, BET1 / Fold change vs veh, BET1 / RFU, CNOT2 / Fold change vs veh, CNOT2 / RFU, ZNF268 / Fold change vs veh, ZNF268 / Fold change vs veh, ZNF507 / RFU, DGCR2 / Fold change vs veh, DGCR2 / RFU, WDSUB1 / Fold change vs veh, WDSUB1 / Fold change vs veh, HSP90B1 /// MIR3652 / RFU, ADSS / Fold change vs veh, ADSS / RFU, GK / Fold change vs veh, GK / RFU, ZNF148 / Fold change vs veh, ZNF148 / RFU, TAF9 / Fold change vs veh, TAF9 / RFU, SLC1A5 / Fold change vs veh, SLC1A5 / RFU, SLMO2 / Fold change vs veh, SLMO2 / RFU, ABCC4 / Fold change vs veh, ABCC4 / RFU, LOC101060439 /// RAP1B / Fold change vs veh, LOC101060439 /// RAP1B / RFU, RFX7 / Fold change vs veh, RFX7 / RFU, GTPBP10 / Fold change vs veh, GTPBP10 / RFU, CNEP1R1 / Fold change vs veh, CNEP1R1 / RFU, BIVM-ERCC5 /// ERCC5 / Fold change vs veh, BIVM-ERCC5 /// ERCC5 / RFU, ILF3 / Fold change vs veh, ILF3 / RFU 11762660_at / Fold change /veh 11762660_at / RFU VCAN (11757783_s_at) / Fold change /veh VCAN (11757783_s_at) / RFU DDX43 (11728927_at) / Fold change /veh DDX43 (11728927_at) / RFU KRT8 (11758188_x_at) / Fold change /veh KRT8 (11758188_x_at) / RFU NKD1 (11759106_at) / Fold change /veh NKD1 (11759106_at) / RFU SRD5A1 (11742802_a_at) / Fold change /veh SRD5A1 (11742802_a_at) / RFU TPSAB1 /// TPSB2 (11721975_s_at) / Fold change /veh TPSAB1 /// TPSB2 (11721975_s_at) / RFU GSTM3 (11746129_a_at) / Fold change /veh GSTM3 (11746129_a_at) / RFU IL23R (11737362_x_at) / Fold change /veh IL23R (11737362_x_at) / RFU TMEM51 (11727254_a_at) / Fold change /veh TMEM51 (11727254_a_at) / RFU PIWIL2 (11732686_x_at) / Fold change /veh PIWIL2 (11732686_x_at) / RFU ORM1 (11744905_x_at) / Fold change /veh ORM1 (11744905_x_at) / RFU CCDC152 (11743942_at) / Fold change /veh CCDC152 (11743942_at) / RFU ECM1 (11717891_a_at) / Fold change /veh ECM1 (11717891_a_at) / RFU IL23R (11748794_a_at) / Fold change /veh IL23R (11748794_a_at) / RFU TNFAIP8L3 (11732012_x_at) / Fold change /veh TNFAIP8L3 (11732012_x_at) / RFU MBOAT4 (11741988_at) / Fold change /veh MBOAT4 (11741988_at) / RFU 11764193_at / Fold change /veh 11764193_at / RFU TMEM53 (11763286_at) / Fold change /veh TMEM53 (11763286_at) / RFU MAGEB2 (11727129_at) / Fold change /veh MAGEB2 (11727129_at) / RFU TMEM200A (11744735_a_at) / Fold change /veh TMEM200A (11744735_a_at) / RFU CCDC152 (11751479_a_at) / Fold change /veh CCDC152 (11751479_a_at) / RFU FAM211A (11726209_a_at) / Fold change /veh FAM211A (11726209_a_at) / RFU RGS16 (11746705_a_at) / Fold change /veh RGS16 (11746705_a_at) / RFU VCAN (11755009_s_at) / Fold change /veh VCAN (11755009_s_at) / RFU RHOB (11743442_s_at) / Fold change /veh RHOB (11743442_s_at) / RFU RGS16 (11720943_a_at) / Fold change /veh RGS16 (11720943_a_at) / RFU RGS16 (11720944_at) / Fold change /veh RGS16 (11720944_at) / RFU, VPS4B / Fold change vs veh, VPS4B / RFU, CREB1 / Fold change vs veh, CREB1 / RFU, DNAJC13 / Fold change vs veh, DNAJC13 / RFU, GNAQ / Fold change vs veh, GNAQ / RFU, CDK5R1 / Fold change vs veh, CDK5R1 / RFU, ZRANB3 / Fold change vs veh, ZRANB3 / RFU, CUL4A / Fold change vs veh, CUL4A / RFU, CCNY / Fold change vs veh, CCNY / RFU, UFL1 / Fold change vs veh, UFL1 / RFU, COG3 / Fold change vs veh, COG3 / RFU, DIAPH2 / Fold change vs veh, DIAPH2 / RFU, SKA2 / Fold change vs veh, SKA2 / RFU, AFF3 / Fold change vs veh, AFF3 / RFU, LMF1 / Fold change vs veh, LMF1 / RFU, IPO11 / Fold change vs veh, IPO11 / RFU, DFFB / Fold change vs veh, DFFB / RFU, FOXP1 / Fold change vs veh, FOXP1 / RFU, CARD8 / Fold change vs veh, CARD8 / RFU, STRN3 / Fold change vs veh, STRN3 / RFU, ADK / Fold change vs veh, ADK / RFU, RASSF2 / Fold change vs veh, RASSF2 / RFU, WIPF1 / Fold change vs veh, WIPF1 / RFU, LARP1B / Fold change vs veh, LARP1B / RFU, RASA1 / Fold change vs veh, RASA1 / RFU, RB1 / Fold change vs veh, RB1 / RFU, PPFIA1 / Fold change vs veh, PPFIA1 / RFU, MAT2A / Fold change vs veh, MAT2A / RFU, CCT5 / Fold change vs veh, CCT5 / RFU, WDR92 / Fold change vs veh, WDR92 / RFU, CUX1 / Fold change vs veh, CUX1 / RFU, TTC7A / Fold change vs veh, TTC7A / RFU, TMEM135 / Fold change vs veh, TMEM135 / RFU, DEPTOR / Fold change vs veh, DEPTOR / RFU, CPM / Fold change vs veh, CPM / RFU, DNAJB6 / Fold change vs veh, DNAJB6 / RFU, CACNA2D3 / Fold change vs veh, CACNA2D3 / RFU, DTX4 / Fold change vs veh, DTX4 / RFU, TFCP2 / Fold change vs veh, TFCP2 / RFU, GMCL1 /// GMCL1P1 / Fold change vs veh, GMCL1 /// GMCL1P1 / RFU, AEBP2 / Fold change vs veh, AEBP2 / RFU, SNHG1 /// SNORD22 /// SNORD25 /// SNORD26 /// SNORD27 /// SNORD28 /// SNORD29 /// SNORD31 / Fold change vs veh, SNHG1 /// SNORD22 /// SNORD25 /// SNORD26 /// SNORD27 /// SNORD28 /// SNORD29 /// SNORD31 / Fold change (Aza/veh), C12orf56 (ProbeSet 11735607_a_at) / Fold change (ACY-1035/veh), C12orf56 (ProbeSet 11735607_a_at) / Fold change (Aza/veh), FGFR1OP (ProbeSet 11751329_s_at) / Fold change (ACY-1035/veh), FGFR1OP (ProbeSet 11751329_s_at) / Fold change (Aza/veh), VPS36 (ProbeSet 11739960_a_at) / Fold change (ACY-1035/veh), VPS36 (ProbeSet 11739960_a_at) / RFU SYPL1 (11715823_x_at) / Fold change /veh SYPL1 (11715823_x_at) / RFU IGFBP7 (11715501_s_at) / Fold change /veh IGFBP7 (11715501_s_at) / RFU REEP3 (11722064_at) / Fold change /veh REEP3 (11722064_at) / RFU IGLL1 (11728026_x_at) / Fold change /veh IGLL1 (11728026_x_at): dose or concentration left out as unconfirmed
Details: MV-4-11 cells, 48 hours

With `Nc1ncn([C@@H]2O[C@H](CO)[C@@H](O)[C@H]2O)c(=O)n1` [azacitidine] the “Fold change /veh LOC100653217 /// NTM (11731650_a_at)” value was 1.16.
